Reference: patent publication US10988485B2 (Amgen Inc., priority 2018, dated 2021)
pIC50: −log10 of the molar value. Like-named read-outs stand apart in the source and are kept apart here.

Columns and labels:
[1] = target: GDP-bound KRAS protein (aa 1-169), containing both G12C and C118A amino acid substitutions (Homo sapiens, UniProt P01116, C118A/G12C); experiment: Coupled Nucleotide Exchange Assay (SOS-mediated nucleotide exchange, AlphaScreen); assay type: biochemical; settings: compound pre-incubation either 5 min or 2 hours (not stated per compound); SOS and GTP added, cRAF AlphaScreen read-out
Sequence of GDP-bound KRAS protein (aa 1-169), containing both G12C and C118A amino acid substitutions (P01116 1-169 isoform P01116-2 G12C/C118A): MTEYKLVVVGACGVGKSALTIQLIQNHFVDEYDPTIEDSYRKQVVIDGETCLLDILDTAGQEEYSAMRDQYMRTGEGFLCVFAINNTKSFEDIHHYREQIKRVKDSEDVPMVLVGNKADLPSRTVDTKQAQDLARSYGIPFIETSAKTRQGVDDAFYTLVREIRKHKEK
Experimental: (§1) For compounds in Table 6, the following assay conditions were employed:
Coupled Nucleotide Exchange Assay: Purified GDP-bound KRAS protein (aa 1-169), containing both G12C and C118A amino acid substitutions and an N-terminal His-tag, was pre-incubated in assay buffer (25 mM HEPES pH 7.4, 10 mM MgCl2, and 0.01% Triton X-100) with a compound dose-response titration for either 5 min or 2 hours (see Table 15). Following compound pre-incubation, purified SOS protein (aa 564-1049) and GTP (Roche 10106399001) were added to the assay wells and incubated for an additional 30 min (for 5 min compound pre-incubation) or 1 hour (for 2 hour compound pre-incubation). To determine the extent of inhibition of SOS-mediated nucleotide exchange, purified GST-tagged cRAF (aa 1-149), nickel chelate AlphaLISA acceptor beads (PerkinElmer AL108R), and AlphaScreen glutathione donor beads (PerkinElmer 6765302) were added to the assay wells and incubated for 10 minutes. The assay plates were then read on a PerkinElmer EnVision Multilabel Reader, using AlphaScreen® technology, and data were analyzed using a 4-parameter logistic model to calculate IC50 values.

[2] = tested on: Phosphorylation of ERK1/2 in MIA PaCa-2 cells; experiment: Phospho-ERK1/2 MSD Assay; assay type: cell-based; settings: compound 2 or 4 hours, then 10 ng/mL EGF for 10 min, read-out: p-ERK IC50 (MIA-PaCa-2) (converted)
Experimental: as §1
Phospho-ERK1/2 MSD Assay: MIA PaCa-2 (ATCC® CRL-1420™) cells were cultured in RPMI 1640 Medium (ThermoFisher Scientific 11875093) containing 10% fetal bovine serum (ThermoFisher Scientific 16000044) and 1× penicillin-streptomycin-glutamine (ThermoFisher Scientific 10378016). Sixteen hours prior to compound treatment, MIA PaCa-2 cells were seeded in 96-well cell culture plates at a density of 25,000 cells/well and incubated at 37° C., 5% CO2. A compound dose-response titration was diluted in growth media, added to appropriate wells of a cell culture plate, and then incubated at 37° C., 5% CO2 for 2 or 4 hours. Following compound treatment, cells were stimulated with 10 ng/mL EGF (Roche 11376454001) for 10 min, washed with ice-cold Dulbecco's phosphate-buffered saline, no Ca^2+ or Mg^2+ (ThermoFisher Scientific 14190144), and then lysed in RIPA buffer (50 mM Tris-HCl pH 7.5, 1% Igepal, 0.5% sodium deoxycholate, 150 mM NaCl, and 0.5% sodium dodecyl sulfate) containing protease inhibitors (Roche 4693132001) and phosphatase inhibitors (Roche 4906837001). Phosphorylation of ERK1/2 in compound-treated lysates was assayed using Phospho-ERK1/2 Whole Cell Lysate kits (Meso Scale Discovery K151DWD) according to the manufacturer's protocol. Assay plates were read on a Meso Scale Discovery Sector imager 6000, and data were analyzed using a 4-parameter logistic model to calculate IC50 values.

[3] = Homo sapiens, MIA PaCa-2, MIA PaCa-2 cells

IC50 [1] [nM]	IC50 [2, 3] [nM]	IC50 ([2]; MIA PaCa-2 cells) [nM]	pIC50 [1]	Compound
200	200			C=CC(=O)N1C[C@H](C)N(C2=NS(=O)(=O)N(c3c(C)cnn3C(C)C)c3nc(-c4ccccc4F)c(Cl)cc32)C[C@H]1C [Example 1-11, 1-((2R,5S)-4-(6-chloro-7-(2-fluorophenyl)-1-(4-methyl-1-(2-propanyl)-1H-pyrazol-5-yl)-2,2-dioxido-1H-pyrido[2,3-c][1,2,6]thiadiazin-4-yl)-2,5-dimethyl-1-piperazinyl)-2-propen-1-one]
180	240			C=CC(=O)N1C[C@H](C)N(C2=NS(=O)(=O)N(c3ccccc3C(C)C)c3nc(-c4ccccc4F)c(Cl)cc32)C[C@H]1C [Example 2-3, 1-((2R,5S)-4-(6-chloro-7-(2-fluorophenyl)-1-(2-isopropylphenyl)-2,2-dioxido-1H-pyrido[2,3-c][1,2,6]thiadiazin-4-yl)-2,5-dimethylpiperazin-1-yl)prop-2-en-1-one]
		150	6.60	C=CC(=O)N1C[C@H](C)N(C2=NS(=O)(=O)N(c3c(N)ncnc3C(C)C)c3nc(-c4ccccc4F)c(Cl)cc32)C[C@H]1C [Example 9]

The next lines start with the compound.

Compound	IC50 [1] [nM]	IC50 [2, 3] [nM]	IC50 ([2]; MIA PaCa-2 cells) [nM]	pIC50 [1]
C=CC(=O)N1CCN(C2=NS(=O)(=O)N(c3c(C(C)C)ncnc3C(C)C)c3nc(-c4ccccc4F)c(Cl)cc32)[C@@H](C)C1 [Example 2-4, (S)-1-(4-(6-chloro-1-(4,6-diisopropylpyrimidin-5-yl)-7-(2-fluorophenyl)-2,2-dioxido-1H-pyrido[2,3-c][1,2,6]thiadiazin-4-yl)-3-methylpiperazin-1-yl)prop-2-en-1-one]	290	310		
C=CC(=O)N1CCN(C2=NS(=O)(=O)N(c3ccc(CN(C)C)cc3C(C)C)c3nc(-c4ccccc4F)c(Cl)cc32)[C@@H](C)C1 [Example 3-1, 1-((3S)-4-(6-Chloro-1-(4-((dimethylamino)methyl)-2-(2-propanyl)phenyl)-7-(2-fluorophenyl)-2,2-dioxido-1H-pyrido[2,3-c][1,2,6]thiadiazin-4-yl)-3-methyl-1-piperazinyl)-2-propen-1-one]	150	90		
C=CC(=O)N1C[C@H](C)N(C2=NS(=O)(=O)N(c3ccc(CN(C)C)cc3C3CC3)c3nc(-c4ccccc4F)c(Cl)cc32)C[C@H]1C [Example 6, 1-((2R,5S)-4-(6-Chloro-1-(2-cyclopropyl-4-((dimethylamino)methyl)phenyl)-7-(2-fluorophenyl)-2,2-dioxido-1H-pyrido[2,3-c][1,2,6]thiadiazin-4-yl)-2,5-dimethyl-1-piperazinyl)-2-propen-1-one]	150	150		
C=CC(=O)N1C[C@H](C)N(C2=NS(=O)(=O)N(c3c(C)cc(CN(C)C)cc3C(C)C)c3nc(-c4c(N)cccc4F)c(Cl)cc32)C[C@H]1C [Example 8, 1-((2R,5S)-4-(7-(2Amino-6-fluorophenyl)-6-chloro-1-(4-((dimethylamino)methyl)-2-methyl-6-(2-propanyl)phenyl)-2,2-dioxido-1H-pyrido[2,3-c][1,2,6]thiadiazin-4-yl)-2,5-dimethyl-1-piperazinyl)-2-propen-1-one]	190		270	
C=CC(=O)N1C[C@H](C)N(C2=NS(=O)(=O)N(c3c(C)cc(CN(C)C)cc3C(C)C)c3nc(-c4c(N)cccc4F)c(Cl)cc32)C[C@H]1C [Example 8-1, 1-((2R,5S)-4-(7-(2-amino-6-fluorophenyl)-6-chloro-1-(4-((dimethylamino)methyl)-2-methyl-6-(2-propanyl)phenyl)-2,2-dioxido-1H-pyrido[2,3-c][1,2,6]thiadiazin-4-yl)-2,5-dimethyl-1-piperazinyl)-2-propen-1-one]	80		80	
